From ChEMBL document CHEMBL3352326, “Synthesis of 2,3-di- and 2,2,3-trisubstituted-3-methoxycarbonyl-γ-butyrolactones as potent antitumor agents” (Eur J Med Chem, 2015)

Assays:
Type in all cases: functional
KB = test: Growth inhibition of human KB cells at 10 uM after 72 hrs by MTS assay; conditions: read-out: GI
[1] = Growth inhibition of human HCT116 cells at 10 uM after 72 hrs by MTS assay; conditions: HCT-116, 72 h, read-out: GI
[2] = Growth inhibition of human HL60 cells at 10 uM after 72 hrs by MTS assay; conditions: HL-60, 72 h, read-out: GI
MCF7 = test: Growth inhibition of human MCF7 cells at 10 uM after 72 hrs by MTS assay; conditions: MCF7, 72 h, read-out: GI

SMILES | inhibition of growth at 10 µM (KB) | inhibition of growth at 10 µM [1] | inhibition of growth at 10 µM [2] | inhibition of growth at 10 µM (MCF7)
COC(=O)C1(Cc2cccc(C(F)(F)F)c2)CC(=O)OC1c1ccccc1 (centres undefined) | 39% | 14% | 34% | 11%
COC(=O)C1(Cc2cccc(OC)c2)CC(=O)OC1c1ccccc1 (centres undefined) | 0% | 14% | 37% | 12%
COC(=O)C1(Cc2ccccc2OC)CC(=O)OC1c1cc(OC)c(OC)c(OC)c1 (centres undefined) | 6% | 19% | 22% | 12%
COC(=O)C1(Cc2ccccc2C(F)(F)F)CC(=O)OC1(C)c1ccccc1 (centres undefined) | 0% | 18% | 0% | 6%
COC(=O)C1(Cc2ccccc2)CC(=O)OC1(C)C (centres undefined) | 0% | 15% | 9% | 7%
COC(=O)C1(Cc2ccc(C(F)(F)F)cc2)CC(=O)OC1(C)c1ccccc1 (centres undefined) | 15% | 25% | 28% | 19%
CCC1(c2ccccc2)OC(=O)CC1(Cc1ccccc1)C(=O)OC (centres undefined) | 22% | 25% | 17% | 12%
COC(=O)C1(Cc2cc(OC)c(OC)c(OC)c2)CC(=O)OC1c1ccccc1 (centres undefined) | 0% | 16% | 7% | 1%
COC(=O)C1(Cc2ccc(OC)cc2)CC(=O)OC1c1ccccc1C(F)(F)F (centres undefined) | 31% | 0% | 23% | 0%
COC(=O)C1(Cc2ccccc2)CC(=O)OC1(C)c1ccccc1 (centres undefined) | 6% | 9% | 22% | 13%
COC(=O)C1(Cc2ccc3c(c2)OCO3)CC(=O)OC1c1ccccc1 (centres undefined) | 0% | 18% | 18% | 11%
COC(=O)C1(Cc2ccc(OC)cc2)CC(=O)OC1(c1ccccc1)C(F)(F)F (centres undefined) | 56% | 20% | 64% | 8%
COC(=O)C1(Cc2ccc(C(F)(F)F)cc2)CC(=O)OC1c1ccccc1 (centres undefined) | 4% | 4% | 4% | 0%
COC(=O)C1(Cc2ccccc2C(F)(F)F)CC(=O)OC1c1ccccc1 (centres undefined) | 42% | 25% | 28% | 35%
COC(=O)C1(Cc2cccc(C(F)(F)F)c2)CC(=O)OC1(C)c1ccccc1 (centres undefined) | 21% | 22% | 21% | 20%
COC(=O)C1(Cc2ccc(OC)cc2)CC(=O)OC1(C)c1cc(OC)c(OC)c(OC)c1 (centres undefined) | 0% | 8% | 24% | 7%
COC(=O)C1(Cc2ccc(OC)cc2)CC(=O)OC1c1ccco1 (centres undefined) | 32% | 0% | 29% | 0%
COC(=O)C1(Cc2cccc(OC)c2)CC(=O)OC1c1cc(OC)c(OC)c(OC)c1 (centres undefined) | 0% | 20% | 10% | 13%
COC(=O)C1(Cc2ccc(OC)cc2)CC(=O)OC1c1cccc(C(F)(F)F)c1 (centres undefined) | 25% | 10% | 14% | 15%
COC(=O)C1(Cc2ccccc2)CC(=O)OC1c1ccccc1 (centres undefined) | 18% | 0% | 22% | 0%
COC(=O)C1(Cc2ccccc2OC)CC(=O)OC1(C)c1ccccc1 (centres undefined) | 9% | 13% | 34% | 10%
